In brackets after ≈: the same amount, converted by molar mass.

One series in a line: physchem. The settings on record: 37° C., x ± s, n = 3.
The subject of a further series is Kunming breed mice. In words: Toxicity test after intraperitoneal administration to mice. The settings on record: 14 d; for Deaths: high and low doses (BFA effective amount conversion), ip., mice; for Mental condition of the animals after administration / Results of anatomy: abnormality in organs: male, Kunming, mouse, in vivo, ip. The series is classed as in vivo. The protocol:
Objective: Observation of toxic effects of compounds after intraperitoneally administration (ip.) to mice
1) Agents: Compounds disclosed herein were formulated to a suitable concentration.
2) Animals: Kunming breed mice, weight 18-22 g, male. Provided by Jinan Pengyue Laboratory Animal Breeding Co., Ltd. Animal license number: SCXK (Shandong 20140007)
Method: Kunming breed mice, were randomly grouped by weight, 6 mice per group, namely normal control group, BFA high and low dose groups (100 mg/kg and 50 mg/kg, respectively), and high and low dose groups of some compounds disclosed herein (BFA effective amount conversion). […] After 14 d of continuous administration, all the animals were weighed, and the animals were executed to observe whether there were any abnormalities in the organs.

Series [1] concerns human lung cancer A549 cells. In words: Cell proliferation assay (CCK-8). The class given is cell-based. The note with it: A549, 72 h. In short, it runs like this:
(§1)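 Cells grown in DMEM with 10% FBS were seeded at 5000 cells/well, left 24 h, then exposed to compounds (DMSO ≤2‰) for 72 h at 37 °C. CCK-8 was added for 1.5–3 h and OD450 read; IC50 came from variable-slope log(inhibitor)-response fits of blank-corrected inhibition.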

Series [2] has as its system human leukemia K562 cells. The experiment in a line: Cell proliferation assay (CCK-8). The series is classed as cell-based. The settings on record: K562, 72 h. In short, it runs like this:
as §1

Series [3] has as its system Human cervical cancer Hela cells. In words: Cell proliferation assay (CCK-8). The class given is cell-based. The note with it: 72 h. In outline: as §1
The subject of series [4] is pancreatic cancer PANC-1 cells. In words: Cell proliferation assay (CCK-8). The class given is cell-based. The note with it: Homo sapiens, PANC-1, 72 h. In outline:
as §1

Series [5] deals with human breast cancer MCF7 cells. The experiment in a line: Cell proliferation assay (CCK-8). The series is classed as cell-based. The note with it: MCF7, 72 h. In outline: as §1
Series [6] has as its system human gastric cancer MKN-45 cells. In words: Cell proliferation assay (CCK-8). The note with it: MKN-45, 72 h. The series is classed as cell-based. In outline:
as §1

Series [7] concerns human liver cancer HepG2 cells. In words: Cell proliferation assay (CCK-8). The class given is cell-based. The settings on record: HepG2, 72 h. In short, it runs like this: as §1
In series [8] the test system is esophageal cancer Eca-109 cells. In words: Cell proliferation assay (CCK-8). The series is classed as cell-based. The note with it: Homo sapiens, Eca-109, 72 h. In outline: as §1
The nature of series [9]: Solubility test (shaking 24 h at 37° C., HPLC).
Method: (§2) Methods: Excess BFA and the compounds disclosed herein were added to 10 mL of three solvents, methanol, acetone and 5% DMSO+95% H2O, respectively, and shaken on a shaker at 37° C. at 100 r/min for 24 h. After 24 h, the samples were centrifuged at 15 000 r/min for 15 min to remove the undissolved compounds. The supernatant was filtered using a 0.45 μm membrane filter. The supernatant was appropriately diluted with methanol and contents of the compounds were determined by HPLC method to calculate the solubility.

Method for physchem: as §2

In the series “physchem” (Acetone), `C[C@H]1CCC/C=C/[C@@H]2C[C@H](OC(=O)/C=C/c3cccnc3)C[C@H]2[C@H](O)/C=C/C(=O)O1` [Compound 16a, 7-O-(3-(pyridine-3-yl)acrylic acid)acyl BFA] displayed a solubility at 24 h of 31.6 ± 0.72 mg/mL (≈ 76.8 mM). Besides, the Deaths entry in the series with Kunming breed mice is “no deaths”. For the same compound, in the series on Kunming breed mice, the “Mental condition of the animals after administration” value (shortened to “Mental condition of the animals”) is recorded as “good mental condition”. Moreover, the “Results of anatomy: abnormality in organs” value in the series with Kunming breed mice is given as “no significant abnormality in all organs”. The IC50 is 100 to 1000 nM in series [1]; 100 to 1000 nM in series [2]; 100 to 1000 nM in series [3]; < 100 nM in [4]; 100 to 1000 nM in series [5]; 100 to 1000 nM in [6]. Further, the values for the half-inhibitory concentration (IC50) in [7] and in [8] were < 100 nM and 100 to 1000 nM, respectively.
Turning to `C[C@H]1CCC/C=C/[C@@H]2C[C@H](O)C[C@H]2[C@H](OC(=O)/C=C/c2ccc(N(C)C)cc2)/C=C/C(=O)O1` [Compound 10b, 4-O-(4-dimethylaminocinnamic acid)acyl BFA], the Deaths entry with Kunming breed mice was “no deaths”. In addition, in the series with Kunming breed mice, the “Mental condition of the animals” value is “good mental condition”. In addition, the “Results of anatomy: abnormality in organs” value in the series on Kunming breed mice is “no significant abnormality in all organs”. Also, the half-maximal inhibitory concentration (IC50) in [1], in [2], in series [3], in [4], in series [5] and in series [6] was 100 to 1000 nM in each case. In addition, the concentration for half-maximal inhibition (IC50) fell in the range of 100 to 1000 nM in series [7] and 1000 to 10000 nM in series [8]. Also, the figures for the solubility at 24 h in [9] (5% DMSO + 95% H2O), in series [9] (acetone) and in series [9] (methanol) were 0.72 ± 0.13 mg/mL, 23.2 ± 1.32 mg/mL (≈ 51.1 mM) and 24.2 ± 1.22 mg/mL (≈ 53.3 mM), respectively.
On to `C[C@H]1CCC/C=C/[C@@H]2C[C@H](OC(=O)/C=C/c3cnc4ccccc4c3)C[C@H]2[C@H](OC(=O)/C=C/c2cnc3ccccc3c2)/C=C/C(=O)O1` [Compound 17c], for which the solubility at 24 h came out at 0.45 ± 0.28 mg/mL in the series “physchem” (5% DMSO + 95% H2O) and 20.4 ± 0.52 mg/mL (≈ 31.8 mM) in “physchem” (Methanol). In addition, the IC50 in series [1] lay within 1000 to 10000 nM; in [2], 100 to 1000 nM; in series [3], 1000 to 10000 nM; in [4], 100 to 1000 nM; in series [5], 100 to 1000 nM; in series [6], 1000 to 10000 nM. The concentration for half-maximal inhibition (IC50) lay within 100 to 1000 nM in series [7] and 1000 to 10000 nM in series [8].
As for `C[C@H]1CCC/C=C/[C@@H]2C[C@H](OC(=O)/C=C/c3ccc(N(C)C)cc3)C[C@H]2[C@H](OC(=O)/C=C/c2ccc(N(C)C)cc2)/C=C/C(=O)O1` [Compound 10c, 4,7-O-bis(4-dimethylaminocinnamic acid)acyl BFA], the Deaths entry with Kunming breed mice was “no deaths”. The “Mental condition of the animals” value in the series with Kunming breed mice is reported as “good mental condition”. In addition, the “Results of anatomy: abnormality in organs” value in the series with Kunming breed mice is recorded as “no significant abnormality in all organs”. Moreover, the half-inhibitory concentration (IC50) in series [1] lay in the range of 100 to 1000 nM; in series [2], 100 to 1000 nM; in series [3], 1000 to 10000 nM; in series [4] it was 1000 to 10000 nM; in series [5], 1000 to 10000 nM; in series [6], 100 to 1000 nM. In addition, the concentration for half-maximal inhibition (IC50) in series [7] and in series [8] was 1000 to 10000 nM each time. Moreover, the solubility at 24 h in series [9] (5% DMSO + 95% H2O) came to 0.44 ± 0.08 mg/mL; in series [9] (acetone), 12.5 ± 0.92 mg/mL (≈ 20 mM); in series [9] (methanol), 13.3 ± 0.91 mg/mL (≈ 21.3 mM).
As for `C[C@H]1CCC/C=C/[C@@H]2C[C@H](OC(=O)/C=C/c3cccc(F)c3)C[C@H]2[C@H](O)/C=C/C(=O)O1` [Compound 1a, 7-O-(3-fluorocinnamic acid)acyl BFA], in the series on Kunming breed mice, the Deaths entry is reported as “no deaths”. Besides, in the series on Kunming breed mice, the “Mental condition of the animals” value is reported as “good mental condition”. The “Results of anatomy: abnormality in organs” value in the series on Kunming breed mice is “no significant abnormality in all organs”. For the same compound, the IC50 in series [1] was 100 to 1000 nM; in series [2] it was 100 to 1000 nM; in series [3] it was 1000 to 10000 nM; in [4], 100 to 1000 nM; in series [5], 100 to 1000 nM; in series [6] it was 100 to 1000 nM. Further, the figures for the IC50 in series [7] and in series [8] were 100 to 1000 nM and 1000 to 10000 nM, respectively. The values for the solubility at 24 h in [9] (5% DMSO + 95% H2O), in series [9] (acetone) and in [9] (methanol) were 0.33 ± 0.13 mg/mL, 21.9 ± 1.53 mg/mL (≈ 51.1 mM) and 21.3 ± 1.52 mg/mL (≈ 49.8 mM), respectively.

(Values after patent US20220064138A1, “MACROLIDE BREFELDIN A ESTER DERIVATIVES AND USE THEREOF” (OCEAN UNIVERSITY OF CHINA, priority 2019, published 2022).)
